Test results: patent US20220339243A1, “COMPOSITIONS AND SYNERGISTIC METHODS FOR TREATING INFECTIONS” (BioAegis Therapeutics Inc., priority 2019, published 2022)
Values after ≈ are worked out from the molar mass of the structure shown. Each block holds one compound with its values, some of them ahead of it.

Legend:
P. aeruginosa UNC-D [1] = assay: Minimum inhibitory concentrations of the UNC-D strain; type: cell-based; conditions: for MIC: Pseudomonas aeruginosa, read-out: Minimum inhibitory concentration
Method: P. aeruginosa UNC-D is a sputum isolate from a patient with cystic fibrosis. [Lawrenz M B, et al. Pathog. Dis. 73 (2015)]. Bacteria were cultured on trypticase soy agar (TSA) plates and in Lennox broth at 37° C. with shaking of broth cultures. […] Bacteria were prepared for animal challenge studies by culturing bacteria in Lennox broth overnight and washing the bacteria into 1×PBS before diluting to a final concentration based on OD600-based estimates and a final 50 μl delivery dose. Bacterial inocula were confirmed by serial dilution and colony enumeration on TSA plates.

S. pneumoniae isolates = conditions: pediatric population; Cai et al. 2018; cited from earlier work
P. aeruginosa UNC-D [2] = assay: Multidrug-resistant P. aeruginosa pneumonia in neutropenic BALB/c mice; type: in vivo
[3] = test system: Streptococcus pneumoniae type 14; assay: Antibiotic-resistant pneumococcal pneumonia, CD1 mice, delayed treatment; type: in vivo
[4] = test system: Streptococcus pneumoniae type 14; assay: In vitro bacterial growth, 1 h culture; type: cell-based; conditions: PEN 16 μg/ml, pGSN 250 μg/ml, average of 2 replicates
[5] = test system: Streptococcus pneumoniae type 14; conditions: cited from earlier work
[6] = test system: Streptococcus pneumoniae type 3; assay: Antibiotic-sensitive pneumococcal pneumonia, CD1 mice, delayed treatment; type: in vivo; conditions: PEN 100 μg i.m. on days 2 and 3 after infection; FIG. 3B

MIC (P. aeruginosa UNC-D [1]): 256 µg/mL (≈ 1850 µM)
Compound: C[C@@H]1O[C@@H]1P(=O)(O)O [fosfomycin]

MIC (P. aeruginosa UNC-D [1]): 32 µg/mL (≈ 68.4 µM)
Compound: NC[C@H]1O[C@H](O[C@H]2[C@H](O)[C@@H](O[C@H]3O[C@H](CO)[C@@H](O)[C@H](N)[C@H]3O)[C@H](N)C[C@@H]2N)[C@H](N)C[C@@H]1O [tobramycin]

MIC (P. aeruginosa UNC-D [1]): 16 µg/mL (≈ 53.4 µM)
Compound: C[C@@H](O)[C@H]1C(=O)N2C(C(=O)O)=C(SCCN=CN)C[C@H]12 [imipenem]

MIC (P. aeruginosa UNC-D [1]): 16 µg/mL (≈ 30.9 µM)
Compound: CCN1CCN(C(=O)N[C@@H](C(=O)N[C@@H]2C(=O)N3[C@@H]2SC(C)(C)[C@@H]3C(=O)O)c2ccccc2)C(=O)C1=O [piperacillin]

More lines, now with the values behind:

Compound: colistin
Minimum inhibitory concentration (P. aeruginosa UNC-D [1]): 1 µg/mL

Compound: CC(C)(O/N=C(\C(=O)N[C@@H]1C(=O)N2C(C(=O)[O-])=C(C[n+]3ccccc3)CS[C@H]12)c1csc(N)n1)C(=O)O [ceftazidime]
MIC (P. aeruginosa UNC-D [1]): 32 µg/mL (≈ 58.5 µM)

Compound: CC[C@H]1OC(=O)[C@H](C)[C@@H](O[C@H]2C[C@@](C)(OC)[C@@H](O)[C@H](C)O2)[C@H](C)[C@@H](O[C@@H]2O[C@H](C)C[C@H](N(C)C)[C@H]2O)[C@](C)(O)C[C@@H](C)C(=O)[C@H](C)[C@@H](O)[C@]1(C)O [erythromycin]
resistance of S. pneumoniae isolates from invasive infections (S. pneumoniae isolates): 96%

Compound: C[C@H]1[C@H](NC(=O)/C(=N\OC(C)(C)C(=O)O)c2csc(N)n2)C(=O)N1S(=O)(=O)O [aztreonam]
MIC (P. aeruginosa UNC-D [1]): 4 µg/mL (≈ 9.19 µM)

Compound: C[C@@H](O)[C@H]1C(=O)N2C(C(=O)O)=C(S[C@@H]3CN[C@H](C(=O)N(C)C)C3)[C@H](C)[C@H]12 [meropenem]
survival in each of experiments 1 and 2 (P. aeruginosa UNC-D [2]; 1250 mg/kg/day of meropenem): ≤ 50%
mean pathology score (lung, maximum 16) (P. aeruginosa UNC-D [2]; 1250 mg/kg/day, two independent studies combined, FIG. 9C, p=0.0049): 6.86
near-normal lung histopathology, surviving mice as the denominator (P. aeruginosa UNC-D [2]; 26/35 vs 38/46): 74.3%
overall survival, all dosing groups in the 3 experiments combined (P. aeruginosa UNC-D [2]; 35/64 without and 46/64 with rhu-pGSN): 55%
overall survival with minor lung injury (pathology scores ≤2) (P. aeruginosa UNC-D [2]; all meropenem doses, three experiments, 26/64 vs 38/64, FIG. 10): 41%
spread to spleen / splenic counts (P. aeruginosa UNC-D [2]; both studies, combined data, pGSN given with meropenem): controlled spread from lung to spleen
survival, third experiment (P. aeruginosa UNC-D [2]; different lot of meropenem, meropenem only group): 75%
survival with near-normal lungs, control survival rate between 25% and 75% (P. aeruginosa UNC-D [2]; exploratory post-hoc analysis, 12/32 vs 27/32): 37.5%
survival for 7 days, two sequential studies combined (P. aeruginosa UNC-D [2]; meropenem 1250 mg/kg/day s.c. q8h 5 days, rhu-pGSN 12 mg/day i.p. days -1 to +5, FIG. 7C): 31%
time to restoration of body temperature to 95° F. in survivors (P. aeruginosa UNC-D [2]; two studies with survival advantage, FIG. 11): 3-5 days post-infection
MIC (P. aeruginosa UNC-D [1]): 8 µg/mL (≈ 20.9 µM)

Compound: penicillin
total lavage neutrophils ([3]; lung lavage 48 hours after infection, single dose, n=5-6/group): 153±74 ×10E4
survival (final four experiments) ([3]; treatment from 24 h after infection, daily for 9 days, pGSN 5 mg i.p., PEN 1 mg i.m., FIG. 4A): no benefit
increase in bacterial CFU [4]: 105000 CFU
minimum inhibitory concentration (MIC) [5]: 8 µg/mL
survival [6]: 100%

Compound: trimethoprim-sulfamethoxazole
resistance of S. pneumoniae isolates from invasive infections (S. pneumoniae isolates): 79%
